Reference: patent publication US20050090485A1, “7-Arylsulfonamido-2,3,4,5-tetrahydro-1h-benzo'diazepine derivatives with 5ht6 receptor affinity for the reatment of cns disorders” (priority 2002, published 2005)

Key:
[1] = biological target: T1, human cloned 5-HT6 receptors (Homo sapiens, UniProt P50406); experiment: 5-HT6 receptor affinity, procedures outlined in WO98/27081; assay type: binding; conditions: read-out: pKi values at human cloned 5-HT6 receptors (converted)
T1 construct: expressed in transfected cells
From the text: Compounds can be tested following the procedures outlined in WO98/27081.

T1 sequence (P50406 whole entry): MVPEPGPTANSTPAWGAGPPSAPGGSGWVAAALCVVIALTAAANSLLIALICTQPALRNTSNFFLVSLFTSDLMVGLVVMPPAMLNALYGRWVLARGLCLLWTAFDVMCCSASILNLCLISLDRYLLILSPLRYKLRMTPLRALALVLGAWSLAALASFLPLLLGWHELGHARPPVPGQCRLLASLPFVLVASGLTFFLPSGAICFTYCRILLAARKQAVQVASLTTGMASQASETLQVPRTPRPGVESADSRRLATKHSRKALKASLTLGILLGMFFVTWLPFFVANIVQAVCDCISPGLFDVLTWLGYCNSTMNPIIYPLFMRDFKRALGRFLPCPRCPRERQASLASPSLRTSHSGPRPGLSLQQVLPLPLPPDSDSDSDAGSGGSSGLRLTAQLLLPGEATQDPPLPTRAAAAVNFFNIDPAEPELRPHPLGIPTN

Row | melting point [°C] | Ki [1] [nM] | Structure (SMILES)
1 | 210 to 211 | – | Cl.O=S(=O)(Nc1ccc2c(c1)CCNCC2)c1ccc(Cl)cc1OC(F)(F)F [Example E12, 7-(4-Chloro-2-trifluoromethoxy)phenylsulfonamido-2,3,4,5-tetrahydro-1H-benzo[d]azepine, hydrochloride]
2 | – | < 3.16 | O=S(=O)(Nc1ccc2c(c1)CCNCC2)c1ccc(Br)cc1OC(F)(F)F [Example E6, 7-(4-Bromo-2-trifuoromethoxy)phenylsulfonamido-2,3,4,5-tetrahydro-1H-benzo[d]azepine]
3 | 231 to 233 | – | Cl.O=S(=O)(Nc1ccc2c(c1)CCNCC2)c1ccc(Br)cc1OC(F)(F)F [Example E11, 7-(4Bromo-2-trifluoromethoxy)phenylsulfonamido-2,3,4,5-tetrahydro-1H-benzo[d]azepine, hydrochloride]
4 | – | < 3.16 | O=S(=O)(Nc1ccc2c(c1)CCNCC2)c1ccc(Cl)cc1OC(F)(F)F [Example E10, 7(4-Chloro-2-trifluoromethoxy)phenylsulfonamido-2,3,5-tetrahydro-1H-benzo[d]azepine]
